Test results reported in patent US12116592B2, “Methods and compositions for ex vivo expansion of very small embryonic-like stem cells (VSELs)” (University of Louisville Research Foundation, Inc., priority 2016, dated 2024).

Tests used:
[1] = test system: Human UCB-derived VSELs (CD133^+/lin^−/CD45^− cells); assay: Ex vivo expansion of human UCB-derived VSELs; format: cell-based; conditions: VPA (1 mM), LH (10 U/ml), FSH (10 U/ml), TGFβ (10 ng/ml) in D-MEM, 10% FBS; at 2 months
Procedure: Human UCB-derived VSELs were isolated by multi-parameter sorting using a MOFLOW™ XDP sorter (Beckman Coulter, Inc.). Small CD133^+/lin^−/CD45^− cells were plated in 96 well plates in D-MEM medium supplemented with 10% FBS in the presence of VPA (1 mM), LH (10 U/ml), FSH (10 U/ml) and transforming growth factor beta (TGFβ; 10 ng/ml). Cells were cultured for two (2) months in a humidified incubator at 37° C., 5% CO2. Fresh medium was added every 7 days.

[2] = test system: Sca-1^+/lin^−/CD45^− murine bone marrow VSELs; assay: Ex vivo expansion of murine VSELs; format: cell-based; conditions: 1 mM VPA with 10 U/ml LH and 10 U/ml FSH in D-MEM, 5% FBS; feeder-free; at 2 months
Procedure: Murine VSELs were isolated by multi-parameter sorting using a MOFLOW™ XDP sorter (Beckman Coulter, Inc., Indianapolis, Indiana, United States of America). Highly purified Sca-1^+/lin^−/CD45^− murine bone marrow VSELs were cultured in D-MEM culture medium containing 5% fetal bovine serum (FBS) supplemented with 10 U/ml luteinizing hormone (LH) and 10 U/ml follicle-stimulating hormone (FSH) in a humidified incubator maintained at 37° C. with 5% CO2. VSELs were exposed to the HDAC inhibitor valproic acid (VPA; Sigma Aldrich, St. Louis, Missouri, United States of America) at a concentration of 1 mM. The cultures were supplemented with fresh LH and FSH every third day. The cultures were maintained for approximately two (2) months.

`CCCC(CCC)C(=O)O` [VPA, valproic acid] was tested, and the “average expansion of sorted purified human VSELs as compared to day 0” value [1] was 32±5 fold and the “average expansion of sorted purified murine VSELs as compared to day 0” value [2] was 21±3 fold.
